Measurements reported in patent US5235045A, “Non-azo naphthalimide dyes” (priority 1992, dated 1993).
Read-outs that look alike come from different tables or passages of the source.

Key:
[1] = Bleaching kinetics in synthetic vesicles; format: physicochemical; conditions: 150-W xenon arc lamp, 20° C.
Experimental: (§1) The dye was incorporated into synthetic vesicles as described above. The vesicles were irradiated with a 150-W Oriel xenon arc lamp at a distance of 4 cm from the lens at a thermostated temperature of 20° C. The change in fluorescence intensity with time was determined above, and the results plotted as a standard first order plot.

[2] = tested on: Herpes simplex virus type 1; assay: Effect of prior activation of Ed6Br with 420 nm light on HSV-1 (plaque assay); format: cell-based, MacIntyre strain; conditions: for log reduction at 25 µM / log reduction at 100 µM: Human alphaherpesvirus 1, 24 h, read-out: Log10 Reduction
[3] = Bleaching in distearoylphosphatidyl choline vesicles; format: physicochemical; conditions: irradiated vesicles
Experimental: as §1

[4] = tested on: DAUDI cells; assay: Photoinduced cell kill of DAUDI cells ([3H]-thymidine incorporation); format: cell-based; conditions: for CPM ([3H]-thymidine incorporation): 10% FCS medium
Experimental: An additional study using DAUDI cells and lower concentrations of Compound VII was performed according to the same protocol for studying the photochemical kill of H9 cells mediated by Compound VII. Viability was determined by the trypan blue assay above, as well as by [^3 H]-thymidine incorporation. The [^3 H]-thymidine incorporated protocol was as follows:
After irradiation, the cells were diluted to 3×10^5 cells/ml with medium containing twice the normal concentration of gentamycin. The cells were pipetted into a 96-well TC plat (100 μl/well) and incubated at 37° C. in a 5% CO2 incubator for 36 hours. At this time 1 μCi of [^3 ]-thymidine was added and allowed to incorporate for 6 hours. The cells were then harvested on glass fiber filters and placed into scintillation vials to which cocktail was added. The samples were counted on a Beckman model LS 6000IC scintillation counter.

[5] = tested on: H9 cells; assay: Location in living cells (fluorescence microscopy); format: cell-based, human; conditions: 5 and 25 μM; 1.5 hours
Experimental: Following the protocol of (1), above, H9 cells were stained with Compound lb, and the technique of fluorescent microscopy was used to determine visually the sites of localization of dye fluorescence in living cells. Specifically, H9 cells were counted with a hemocytometer and diluted to 5×10^5 /ml. Compound 1b was added to two aliquots to give dye concentrations of 5 and 25 μM, and the tubes were incubated for 1.5 hours. Cytospin slides of the cell suspensions were made and they were examined with the fluorescence microscope (Olympus AH-2) using B excitation plus a 460 nm interference excitation filter and a 495 nm emission filter. The cells were also counted with a hemocytometer and their viability determined (see below). […] The former may reflect the diffusional component of the dye incorporation, or may reflect binding in the ER membrane. The latter may indicate lysosomal localization of pinocytosed dye as occurs with Lucifer Yellow.

CCCCCCNc1c(Br)cc2c3c(cccc13)C(=O)N(CCCCCC)C2=O [Compound VII, 3-bromo-4-(hexyl)amino-N-hexyl-1,8-naphthalimide]
rate constant for bleaching ([1]; 0 mol % cholesterol): 1.08 ± 0.08 × 10^-3 s^-1 | rate constant for bleaching ([1]; 15 mol % cholesterol): 2.00 ± 0.13 × 10^-3 s^-1 | rate constant for bleaching ([1]; 30 mol % cholesterol): 3.08 ± 0.20 × 10^-3 s^-1 | rate constant for bleaching ([1]; 45 mol % cholesterol): 3.1 ± 0.9 × 10^-3 s^-1 | PFU/ml ([2]; 25 μM, prior activation +): 8.4 × 10^3 PFU/ml | PFU/ml ([2]; 25 μM, prior activation -): 4.5 × 10^4 PFU/ml | PFU/ml ([2]; 100 μM, prior activation +): 3.0 × 10^1 PFU/ml | PFU/ml ([2]; 100 μM, prior activation -): 9.0 × 10^3 PFU/ml | log reduction at 25 µM ([2]; 25 μM, prior activation +): 1.51 | log reduction at 25 µM ([2]; 25 μM, prior activation -): 0.78 | log reduction at 100 µM ([2]; 100 μM, prior activation +): 3.95 | log reduction at 100 µM ([2]; 100 μM, prior activation -): 1.48 | kill of HSV-1 ([2]; as low as 100 mM, activated prior to addition to viral suspension): > 99.99% | bleaching [3]: do not bleach | photodegradation of the dye [3]: only very slow photodegradation | CPM ([3H]-thymidine incorporation) ([4]; 1 μM, hν): 1.2 ± 0.4 × 10^2 CPM | CPM ([3H]-thymidine incorporation) ([4]; 1 μM, no hν): 5.1 ± 0.3 × 10^4 CPM | CPM ([3H]-thymidine incorporation) ([4]; 5 μM, hν): 1.1 ± 0.3 × 10^2 CPM | CPM ([3H]-thymidine incorporation) ([4]; 5 μM, no hν): 4.8 ± 0.3 × 10^4 CPM | CPM ([3H]-thymidine incorporation) ([4]; 10 μM, hν): 1.0 ± 0.4 × 10^2 CPM | CPM ([3H]-thymidine incorporation) ([4]; 10 μM, no hν): 4.5 ± 0.2 × 10^4 CPM | photochemical cell inactivation ([4]; concentrations as low as 1 μM, 10J/cm^2): highly efficient photochemical cell inactivator

CCCCCCNc1ccc2c3c(cccc13)C(=O)N(CCCCCC)C2=O [Compound 1b, 4-(hexyl)amino-N-hexyl-1,8-naphthalimide]
localization in cell nucleus [5]: rigorously excluded from the cell nucleus | site of dye fluorescence [5]: highly fluorescent with the cytoplasm being the primary site
